Results taken from article PMC9886550, “Molecular mechanism of topoisomerase poisoning by the peptide antibiotic albicidin” (Nature Catalysis, 2023).

Key:
Type in all cases: biochemical
WT E. coli gyrase = biological target: T1, WT E. coli gyrase (Escherichia coli, UniProt P0AES4+P0AES6); assay: biochemical; settings: for % cleaved DNA Average: average of replicates
T1 construct: alternative cryo-EM approach involving full-length E. coli gyrase; 10-His (cleaved yes); Twin-Strep (cleaved yes); made in house
Method: (§1) For DNA gyrase supercoiling assays to characterize gyrase mutants, 15 µl reactions were set up containing 250 ng of relaxed DNA, E. coli gyrase supercoiling buffer (35 mM Tris–Cl pH 7.5, 24 mM KCl, 4 mM MgCl2, 2 mM DTT, 1.8 mM spermidine, 1 mM ATP, 6.0% (w/v) glycerol, and 0.1 mg ml^−1 BSA), gyrase subunits and inhibitors. Concentrations of enzyme and inhibitor are stated in the figure legends. Inhibitors were diluted in the following way to reduce the chance of precipitation: stock compound in 100% DMSO was diluted to 5 mM in 100% DMSO. This compound solution was diluted to 1 mM by stepwise addition of 1 µl of 50% DMSO with thorough mixing via pipetting after each addition. All subsequent dilutions up to 100 µM were performed in the same way using H2O. After this point, compounds were stable and could be diluted in the normal way. Reactions were incubated at 37 °C for 30 min before stopping with 15 µl chloroform:isoamyl alcohol (24:1 v/v) and 15 µl of STEB (40% (w/v) sucrose, 100 mM Tris–Cl pH 8, 10 mM EDTA, 0.5 mg ml^−1 bromophenol blue).
(§2) Cleavage assays were set up in the same way as supercoiling assays with some modifications. The concentration of enzyme was increased 4-fold relative to the supercoiling assay and reactions were incubated for 1 h before addition of 0.2% SDS and proteinase K (0.2 mg ml^−1) and further incubation at 37 °C for 30 min to trap cleavage complexes. Reactions were stopped in the same way as supercoiling assays.
(§3) Results were visualized by agarose gel electrophoresis: 1% agarose Tris-acetate-EDTA (TAE) gels were run without ethidium bromide (supercoiling) or with 10 µg ml^−1 ethidium bromide (cleavage) at 8 V cm^−1.
(§4) DNA cleavage gels were analysed using densitometry (ImageJ). Experiments were carried out in triplicate and expressed as mean ± s.d. Curves were fitted using OriginPro 2021 (Origin Lab) according to a modified Hill equation:1 y=cI+(cF−cI)[…]/(k^n+x^n) where y is the percentage of cleaved DNA, cI is the initial cleavage, cF is the final cleavage, k is the CC50 (the concentration of inhibitor that results in cleavage of 50% of DNA), n is a slope factor and x is the inhibitor concentration.

E. coli gyrase GyrA^A67Q = biological target: T2, E. coli gyrase GyrA^A67Q (Escherichia coli, UniProt P0AES4+P0AES6, A67Q); assay: DNA gyrase cleavage assay (CC50, % cleaved DNA); settings: for % cleaved DNA Average: average of replicates
T2 construct: alternative cryo-EM approach involving full-length E. coli gyrase; 10-His (cleaved yes); Twin-Strep (cleaved yes); made in house
Method: as §1, §2, §3, §4

[1] = biological target: T3, E. coli gyrase GyrA^M120A (Escherichia coli, UniProt P0AES4+P0AES6, M120A); assay: DNA gyrase cleavage assay (CC50, % cleaved DNA); settings: for % cleaved DNA Average: average of replicates
T3 construct: alternative cryo-EM approach involving full-length E. coli gyrase; 10-His (cleaved yes); Twin-Strep (cleaved yes); made in house
Method: as §1, §2, §3, §4

E. coli gyrase GyrA^S83L = biological target: T4, E. coli gyrase GyrA^S83L (Escherichia coli, UniProt P0AES4+P0AES6, S83L); assay: DNA gyrase cleavage assay (CC50, % cleaved DNA); settings: for % cleaved DNA Average: average of replicates
T4 construct: alternative cryo-EM approach involving full-length E. coli gyrase; 10-His (cleaved yes); Twin-Strep (cleaved yes); made in house
Method: as §1, §2, §3, §4

E. coli gyrase GyrA^V70A = biological target: T5, E. coli gyrase GyrA^V70A (Escherichia coli, UniProt P0AES4+P0AES6, V70A); assay: DNA gyrase cleavage assay (CC50, % cleaved DNA); settings: for % cleaved DNA Average: average of replicates
T5 construct: alternative cryo-EM approach involving full-length E. coli gyrase; 10-His (cleaved yes); Twin-Strep (cleaved yes); made in house
Method: as §1, §2, §3, §4

[2] = biological target: T6, E. coli gyrase GyrB^K447W (Escherichia coli, UniProt P0AES4+P0AES6, K447W); assay: DNA gyrase cleavage assay (CC50, % cleaved DNA)
T6 construct: alternative cryo-EM approach involving full-length E. coli gyrase; 10-His (cleaved yes); Twin-Strep (cleaved yes); made in house
Method: as §1, §2, §3, §4

E. coli Topo IV = E. coli Topo IV (Escherichia coli, UniProt P0AFI2+P20083); assay: Topo IV cleavage assay (cleavage complex stabilization)
E. coli Topo IV, sequence (P0AFI2 whole entry): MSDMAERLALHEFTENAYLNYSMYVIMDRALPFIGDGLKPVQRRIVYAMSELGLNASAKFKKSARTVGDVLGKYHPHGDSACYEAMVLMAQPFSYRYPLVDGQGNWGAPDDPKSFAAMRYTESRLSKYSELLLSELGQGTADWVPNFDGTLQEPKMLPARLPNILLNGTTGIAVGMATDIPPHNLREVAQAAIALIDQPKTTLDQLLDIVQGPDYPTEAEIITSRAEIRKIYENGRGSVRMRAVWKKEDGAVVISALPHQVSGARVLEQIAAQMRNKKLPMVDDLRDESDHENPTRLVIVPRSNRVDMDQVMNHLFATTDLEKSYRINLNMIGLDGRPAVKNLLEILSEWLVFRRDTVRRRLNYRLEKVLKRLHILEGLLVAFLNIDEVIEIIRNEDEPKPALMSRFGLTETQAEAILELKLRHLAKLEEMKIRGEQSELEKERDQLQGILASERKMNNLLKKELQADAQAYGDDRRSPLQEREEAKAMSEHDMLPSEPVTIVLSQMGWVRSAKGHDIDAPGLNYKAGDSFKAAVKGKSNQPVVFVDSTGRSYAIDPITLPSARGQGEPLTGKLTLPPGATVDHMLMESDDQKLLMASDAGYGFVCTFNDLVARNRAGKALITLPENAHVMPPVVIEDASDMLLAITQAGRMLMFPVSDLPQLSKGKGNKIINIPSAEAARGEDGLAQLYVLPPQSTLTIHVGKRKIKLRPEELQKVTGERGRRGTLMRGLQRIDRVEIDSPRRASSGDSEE
E. coli Topo IV, sequence (P20083 whole entry): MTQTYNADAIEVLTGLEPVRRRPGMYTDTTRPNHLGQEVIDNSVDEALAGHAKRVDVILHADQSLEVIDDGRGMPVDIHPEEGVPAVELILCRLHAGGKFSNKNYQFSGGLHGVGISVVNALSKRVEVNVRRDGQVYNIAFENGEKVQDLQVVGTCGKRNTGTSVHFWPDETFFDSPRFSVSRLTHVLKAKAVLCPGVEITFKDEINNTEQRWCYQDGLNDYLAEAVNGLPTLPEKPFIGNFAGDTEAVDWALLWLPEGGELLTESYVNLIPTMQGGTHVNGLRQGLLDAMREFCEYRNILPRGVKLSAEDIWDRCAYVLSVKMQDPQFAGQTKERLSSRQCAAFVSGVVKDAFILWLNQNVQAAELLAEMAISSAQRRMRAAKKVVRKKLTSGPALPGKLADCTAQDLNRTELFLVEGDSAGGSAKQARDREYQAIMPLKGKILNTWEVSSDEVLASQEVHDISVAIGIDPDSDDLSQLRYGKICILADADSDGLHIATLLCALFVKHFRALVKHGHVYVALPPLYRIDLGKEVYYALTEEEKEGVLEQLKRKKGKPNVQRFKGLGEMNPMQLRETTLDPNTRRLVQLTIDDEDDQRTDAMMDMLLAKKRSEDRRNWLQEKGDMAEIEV
Method: Topo IV cleavage assays were set up in the same way as relaxation assays with some modifications. The concentration of enzyme was increased by 20% and cleavage complexes were trapped by the addition of 0.2% SDS and proteinase K (0.2 mg ml^−1) and further incubation at 37 °C for 30 min. Reactions were stopped in the same way as supercoiling assays.
as §3
Supplementary Figure 11. Activity of albicidin and Albi-1/2/3 on E. coli […]
Cleavage activity of E. coli topo IV in the presence of albicidin, Albi-1, Albi-2 and Albi-3. First lane: negatively supercoiled pBR322; second lane: innate cleavage activity of E. coli topo IV (15 nM); third lane: effect of 20 µM CFX; subsequent lanes: effect of increasing compound concentration (0.1, 1, 10, 100 µM). […]
concentration. All experiments were carried out in triplicates and representative gels […]
(1 picture or pasted object on this page, not shown here)

COc1c(NC(=O)c2ccc(NC(=O)c3ccc(NC(=O)[C@H](CC#N)NC(=O)c4ccc(NC(=O)/C(C)=C/c5ccc(O)cc5)cc4)cc3)c(OC)c2O)ccc(C(=O)O)c1O [Albicidin]
% maximal cleavage (WT E. coli gyrase; GyraseWT, average of 3 independent assays): 81±2% | EC50 (WT E. coli gyrase; Gyrase^WT, mean ± s.d. of triplicate, read-out: CC50 (the source's name)): 46 ± 3.7 nM | % cleaved DNA Average (WT E. coli gyrase; albicidin 0.0005 µM): 3.748% | % cleaved DNA Average (WT E. coli gyrase; albicidin 0.0025 µM): 5.277% | % cleaved DNA Average (WT E. coli gyrase; albicidin 0.005 µM): 6.761% | % cleaved DNA Average (WT E. coli gyrase; albicidin 0.01 µM): 11.8941% | % cleaved DNA Average (WT E. coli gyrase; albicidin 0.025 µM): 24.028% | % cleaved DNA Average (WT E. coli gyrase; albicidin 0.05 µM): 56.851% | % cleaved DNA Average (WT E. coli gyrase; albicidin 0.1 µM): 62.7758% | % cleaved DNA Average (WT E. coli gyrase; albicidin 0.25 µM): 75.7465% | % cleaved DNA Average (WT E. coli gyrase; albicidin 0.5 µM): 79.6286% | % cleaved DNA Average (WT E. coli gyrase; albicidin 1 µM): 76.3016% | % cleaved DNA Average (WT E. coli gyrase; albicidin 10 µM): 81.3635% | increase in CC50 (E. coli gyrase GyrA^A67Q; 1 h): more than 10 fold | % maximal cleavage (E. coli gyrase GyrA^A67Q; GyrAA67Q, average of 3 independent assays): 83±1% | EC50 (E. coli gyrase GyrA^A67Q; GyrA^A67Q, mean ± s.d. of triplicate): 610 ± 124 nM | % cleaved DNA Average (E. coli gyrase GyrA^A67Q; albicidin 0.01 µM): 3.538% | % cleaved DNA Average (E. coli gyrase GyrA^A67Q; albicidin 0.025 µM): 4.787% | % cleaved DNA Average (E. coli gyrase GyrA^A67Q; albicidin 0.05 µM): 6.475% | % cleaved DNA Average (E. coli gyrase GyrA^A67Q; albicidin 0.1 µM): 6.201% | % cleaved DNA Average (E. coli gyrase GyrA^A67Q; albicidin 0.25 µM): 17.9877% | % cleaved DNA Average (E. coli gyrase GyrA^A67Q; albicidin 0.5 µM): 34.7807% | % cleaved DNA Average (E. coli gyrase GyrA^A67Q; albicidin 1 µM): 60.5747% | % cleaved DNA Average (E. coli gyrase GyrA^A67Q; albicidin 5 µM): 76.5607% | % cleaved DNA Average (E. coli gyrase GyrA^A67Q; albicidin 10 µM): 82.9213% | % cleaved DNA Average (E. coli gyrase GyrA^A67Q; albicidin 25 µM): 77.2008% | % cleaved DNA Average (E. coli gyrase GyrA^A67Q; albicidin 50 µM): 74.453% | % maximal cleavage ([1]; GyrAM120A, average of 3 independent assays): 72±3% | EC50 ([1]; GyrA^M120A, mean ± s.d. of triplicate): 50 ± 11 nM | % cleaved DNA Average ([1]; albicidin 0.0005 µM): 4.819% | % cleaved DNA Average ([1]; albicidin 0.001 µM): 6.609% | % cleaved DNA Average ([1]; albicidin 0.0025 µM): 6.667% | % cleaved DNA Average ([1]; albicidin 0.005 µM): 6.183% | % cleaved DNA Average ([1]; albicidin 0.01 µM): 19.8754% | % cleaved DNA Average ([1]; albicidin 0.025 µM): 25.7528% | % cleaved DNA Average ([1]; albicidin 0.05 µM): 41.0477% | % cleaved DNA Average ([1]; albicidin 0.1 µM): 46.9644% | % cleaved DNA Average ([1]; albicidin 0.5 µM): 60.6731% | % cleaved DNA Average ([1]; albicidin 1 µM): 72.349% | increase in CC50 (E. coli gyrase GyrA^S83L; 1 h): 3 fold | % maximal cleavage (E. coli gyrase GyrA^S83L; GyrAS83L, average of 3 independent assays): 68±5% | EC50 (E. coli gyrase GyrA^S83L; GyrA^S83L, mean ± s.d. of triplicate): 129 ± 43 nM | % cleaved DNA Average (E. coli gyrase GyrA^S83L; albicidin 0.0025 µM): 2.652% | % cleaved DNA Average (E. coli gyrase GyrA^S83L; albicidin 0.005 µM): 2.693% | % cleaved DNA Average (E. coli gyrase GyrA^S83L; albicidin 0.01 µM): 2.768% | % cleaved DNA Average (E. coli gyrase GyrA^S83L; albicidin 0.025 µM): 5.278% | % cleaved DNA Average (E. coli gyrase GyrA^S83L; albicidin 0.05 µM): 12.476% | % cleaved DNA Average (E. coli gyrase GyrA^S83L; albicidin 0.1 µM): 26.0782% | % cleaved DNA Average (E. coli gyrase GyrA^S83L; albicidin 0.5 µM): 63.6873% | % cleaved DNA Average (E. coli gyrase GyrA^S83L; albicidin 1 µM): 64.6552% | % cleaved DNA Average (E. coli gyrase GyrA^S83L; albicidin 5 µM): 67.9433% | increase in CC50 (E. coli gyrase GyrA^V70A; 1 h): > 25 fold | % maximal cleavage (E. coli gyrase GyrA^V70A; GyrAV70A, average of 3 independent assays): 80±2% | EC50 (E. coli gyrase GyrA^V70A; GyrA^V70A, cell prints its own unit): 1240 nM | % cleaved DNA Average (E. coli gyrase GyrA^V70A; albicidin 0.025 µM): 3.14% | % cleaved DNA Average (E. coli gyrase GyrA^V70A; albicidin 0.05 µM): 4.791% | % cleaved DNA Average (E. coli gyrase GyrA^V70A; albicidin 0.1 µM): 4.574% | % cleaved DNA Average (E. coli gyrase GyrA^V70A; albicidin 0.25 µM): 12.5575% | % cleaved DNA Average (E. coli gyrase GyrA^V70A; albicidin 0.5 µM): 14.0393% | % cleaved DNA Average (E. coli gyrase GyrA^V70A; albicidin 1 µM): 46.9741% | % cleaved DNA Average (E. coli gyrase GyrA^V70A; albicidin 5 µM): 65.2533% | % cleaved DNA Average (E. coli gyrase GyrA^V70A; albicidin 10 µM): 79.6585% | % cleaved DNA Average (E. coli gyrase GyrA^V70A; albicidin 50 µM): 77.0866% | % maximal cleavage ([2]; GyrBK447W, average of 3 independent assays): 27±2% | decrease of the maximal cleavage ([2]; GyrB^K447W vs WT gyrase): 3 fold | increase in CC50 ([2]; GyrB^K447W vs WT gyrase, 60 min): 10 fold | EC50 ([2]; GyrB^K447W, mean ± s.d. of triplicate): 452 ± 108 nM | concentration at which a linear DNA band could be observed (E. coli Topo IV; Topo IV cleavage complex stabilization, tested 0.1, 1, 10, 100 µM): 10 µM | stabilization of the cleavage complex with Topo IV (E. coli Topo IV; in words): could stabilize the cleavage complex
